Where two headings read alike, the source gives them in different places.
Assays:
[1] = Metabolism of BaP in incubations with rat liver microsomes; format: in vitro ADME, rat
Experimental: (§1) All in vitro Vmax values were scaled to microsomal or S9 protein content of rat liver using the following scaling factors: 45 mg microsomal protein per gram liver tissue and 125 mg S9 protein per gram liver tissue (Houston and Galetin [2008]). The scaled Vmax values were subsequently converted to Vmax in nmol/min/liver using the liver weight of 9.1 g, calculated from the body weight and fractional liver weight presented in Table 1. The Km in vitro was assumed equal to the Km in vivo.
(§2) The incubation mixtures consisted of (final concentrations) 0.1 mM potassium phosphate (pH 7.4), 5 mM MgCl2, 0.5 mg/ml rat liver microsomes or 2 mg/ml rat lung microsomes, and 1 mM NADPH in conical glass vials. […] The mixtures were incubated in a shaking water bath at 37 °C for 30 min. 20 µl ice-cold 10% (v/v) perchloric acid (HClO4) was added to terminate the reactions and the mixtures were put on ice for at least 15 min. Di-isopropyl ether (DIPE) was used to extract BaP and its metabolites from the incubation mixture. To this end, 1 ml DIPE was added to each incubation mixture, the tubes vortexed for 20 s and the upper layer was collected. Extraction was performed three times. Remaining DIPE was removed by evaporation under a stream of N2. Subsequently, extracts were re-dissolved in 100 µl methanol and transferred to UPLC vials for analysis.
The UPLC was equipped with a Photodiode Array (PDA) detector, recording wavelengths between 190 and 400 nm and a Phenomenex C18 column (Phenomenex, Torrance, California, United States). The column temperature was kept at 40 °C and the auto-sampler at 4 °C during analysis. The mobile phase consisted of Nanopure water containing 0.1% (v/v) trifluoroacetic acid (TFA) (A) and acetonitrile containing 0.1% (v/v) TFA (B) at a flow rate of 0.3 ml/min. The total run time was 23 min and 30 s, starting with 10% B for 30 s, increasing to 100% B in 15 min, maintaining this condition for 3 min before returning to the initial conditions of 10% B in 30 s. 10 µl of sample was injected per run. Under these conditions the metabolite 3-OHBaP, detected at 258 nm, eluted at 10.16 min. For the glucuronidated and sulfonated metabolite of 3-OHBaP, retention time and detection wavelength were 7.5 min, 303.3 nm and 7.4 min, 301 nm, respectively. The amounts of 3-OHBaP in the microsomal incubation sample and of glucuronidated and sulfated 3-OHBaP in the S9 incubation samples were quantified by integrating peak areas at their respective wavelengths using a calibration curve prepared with commercially available 3-OHBaP. To obtain the Vmax and Km the in vitro data for the substrate concentration-dependent rate of metabolite formation were fitted to the Michaelis–Menten equation using Graphpad Prism 9.0.1 for Windows (GraphPad Software, San Diego, California, USA).

[2] = Glucuronidation of 3-OHBaP in incubations with rat liver S9; format: in vitro ADME
Experimental: as §1
(§3) Incubations with rat liver and lung S9 fractions were optimized to establish linearity over time and protein concentrations for the rate of glucuronidation and sulfation of 3-OHBaP. […]
Kinetics for 3-OHBaP glucuronidation, were quantified using incubations with pooled liver S9 fractions from male SD rats. […]
(§4) All incubation mixtures were pre-incubated for 1 min, after which the reaction was initiated by addition of 3-OHBaP in final concentrations ranging from 0.01 to 50 µM (glucuronidation) or 0.01–100 µM (sulfation) added from 100 times concentrated stock solutions in DMSO to reach the final volume of 200 µl (1% DMSO v/v). […] The supernatant was collected and analysed by Ultra Performance Liquid Chromatography (UPLC). […]

[3] = Sulfation of 3-OHBaP in incubations with rat liver S9; format: in vitro ADME; conditions: male, SD, pooled rat liver S9, pH 7.4
Experimental: as §1, §3
Hepatic sulfonation of 3-OHBaP was evaluated using pooled liver S9 fractions of male SD rats, in incubation mixtures with a final volume of 200 µl in conical glass vials containing (final concentrations) 0.1 mM Tris–HCl (pH 7.4), 0.1 mg/ml rat liver S9 and 0.2 mM PAPS.
as §4

[4] = PBK model prediction of 3-OHBaP blood concentrations in rat; conditions: intravenous; Marie et al. (2010)
Excerpt: The conceptual PBK model for BaP consisted of separate compartments for venous blood, arterial blood, fat tissue, liver tissue, lung tissue, rapidly and slowly perfused tissue, stomach and intestines. 3-OHBaP is highly lipophilic. To prevent 3-OHBaP from partitioning into the fat tissue in the model simulations, it was essential to include a blood protein compartment in the model to allow binding of 3-OHBaP to blood protein. The unbound fraction of 3-OHBaP in the blood compartment was represented by the fub, in vivo, calculated as described in “Translating in vitro concentration–response data into in vivo dose–response data using PBK modelling-based reverse dosimetry” section. The fraction of 3-OHBaP bound to protein in the blood protein compartment (fb, in vivo) was calculated as 1 minus the fub, in vivo. […] Clearance of 3-OHBaP was assumed to result from hepatic and pulmonary conjugation (Cohen [1990]; Cohen and Moore [1976]). […]
For oral exposure, stomach emptying and intestinal transfer of the parent compound were included. […] The Papp, in vivo was calculated using the following equation: log (Papp, in vivo) = 0.6836 × log (Papp, Caco−2) − 0.5579 (Sun et al. [2002]) and applied in the model as described before (Zhang et al. [2018]). […]

[5] = 3-OHBaP in rat blood, read-out: Cmax reported, cited from earlier work
[6] = test system: ES-D3 cells; set-up: method as in Kamelia et al. (2020); conditions: without bioactivation; ref Kamelia et al. (2020); cited from earlier work
[7] = rat PBK model; ref Crowell et al. (2011); cited from earlier work
[8] = format: in vitro ADME; conditions: rat, 30 min, pH 7.4
Experimental: as §2
The UPLC was equipped with a Photodiode Array (PDA) detector, recording wavelengths between 190 and 400 nm and a Phenomenex C18 column (Phenomenex, Torrance, California, United States). […] Under these conditions the metabolite 3-OHBaP, detected at 258 nm, eluted at 10.16 min. […] The amounts of 3-OHBaP in the microsomal incubation sample and of glucuronidated and sulfated 3-OHBaP in the S9 incubation samples were quantified by integrating peak areas at their respective wavelengths using a calibration curve prepared with commercially available 3-OHBaP. […]

[9] = test system: F-344 rat; experiment: In vivo reproductive toxicity of BaP (foetal survival), nasal inhalation; conditions: inhalation expressed as oral dose equivalent, data of Archibong et al. (2002)
Experimental: Foetal survival, calculated as the fraction of live foetuses relative to the number of implantation sites reported in these studies, was taken as measure for in vivo reproductive toxicity. […] These oral dose equivalents in mg/kg bw were used for the comparison with model predicted dose–response data.
ED50 values were calculated for the predicted and reported dose–response data, using the non-linear regression with three parameters in Graphpad Prism version 9.0.1 for Windows (GraphPad Software, San Diego, California USA). The ED50 value was calculated for the fraction differentiated into beating cardiomyocytes for the predicted dose–response data. For the in vivo studies, foetus survival (number of live foetuses as fraction of total implantations) was used as response.

[10] = test system: Caco-2 cells; conditions: cited from earlier work
[11] = rat, in vivo; cited from earlier work
[12] = formation of the metabolite from BaP, rat liver microsomes

Oc1ccc2ccc3c4ccccc4cc4ccc1c2c43 [3-OHBaP, 3-hydroxybenzo[a]pyrene]
Vmax [1, 12]: 162.2 ± 47.6 pmol/min/mg microsomal protein
Concentration at which substrate inhibition occurred ([2]; glucuronidation): ≥ 50000 nM
Km at 20 min ([2]; male, SD, pooled rat liver S9, pH 7.4, glucuronidation of 3-OHBaP): 10 µM
Km at 70 min [3]: 17 µM
Cmax reported relative to predicted Cmax (fold higher) [4]: 1.1 fold
Cmax ([5]; intratracheal 10 mg/kg bw BaP, ref Moreau and Bouchard (2015)): 140 nM
Cmax ([5]; intravenous 10 mg/kg bw BaP, ref Marie et al. (2010)): 720 nM
Cmax ([5]; intravenous 10 mg/kg bw BaP, ref Moreau and Bouchard (2015)): 220 nM
Cmax ([5]; oral 10 mg/kg bw BaP, ref Moreau and Bouchard (2015)): 100 nM
Result in the EST [6]: induces developmental toxicity
Tissue:blood partition coefficient, fat [7]: 401
Tissue:blood partition coefficient, liver [7]: 12.24
Tissue:blood partition coefficient, lung [7]: 12.24
Tissue:blood partition coefficient, rapidly perfused tissue [7]: 12.24
Tissue:blood partition coefficient, slowly perfused tissue [7]: 6.43

O=C1C=Cc2ccc3c4c(ccc1c24)-c1ccccc1C3=O [B[a]P-1,6-quinone]
Vmax [1, 12]: 22.2 ± 3.2 pmol/min/mg microsomal protein

O=C1C=Cc2ccc3c4c(ccc1c24)C(=O)c1ccccc1-3 [B[a]P-3,6-quinone]
Vmax [1, 12]: 3.0 ± 0.5 pmol/min/mg microsomal protein

c1ccc2c(c1)cc1ccc3cccc4ccc2c1c34 [BaP, benzo[a]pyrene]
Vmax ([1]; rat, 30 min, pH 7.4): 0.16 nmol/min/mg microsomal protein
Vmax scaled to the whole liver ([1]; rat, 30 min, pH 7.4): 4.1 µmol/min/liver
Km at 30 min ([1]; rat, pH 7.4, Km): 34 µM
Rate of 3-OHBaP formation ([8]; 200 µM): 0.81 pmol/min/mg protein
Formation of 3-OHBaP in lung microsomes [8]: did not result in formation of detectable levels of 3-OHBaP
ED50 derived from reported in vivo dose-response data [9]: 29 mg/kg bw per day
Log Papp, Caco-2 [10]: -5.42
Papp, Caco-2 [10]: 3.8 x1E-6 cm/sec
Blood concentration in maternal versus foetal blood [11]: similar

— article PMC8448719 (Archives of Toxicology, 2021)
